Measurements taken from ChEMBL document CHEMBL4312043, “Discovery of Novel Neuraminidase Inhibitors by Structure-Based Virtual Screening, Structural Optimization, and Bioassay” (ACS Med Chem Lett, 2019).

Molecular target: Neuraminidase (Influenza A virus (A/Puerto Rico/8/1934(H1N1)), UniProt P03468)
Sequence (P03468 whole entry): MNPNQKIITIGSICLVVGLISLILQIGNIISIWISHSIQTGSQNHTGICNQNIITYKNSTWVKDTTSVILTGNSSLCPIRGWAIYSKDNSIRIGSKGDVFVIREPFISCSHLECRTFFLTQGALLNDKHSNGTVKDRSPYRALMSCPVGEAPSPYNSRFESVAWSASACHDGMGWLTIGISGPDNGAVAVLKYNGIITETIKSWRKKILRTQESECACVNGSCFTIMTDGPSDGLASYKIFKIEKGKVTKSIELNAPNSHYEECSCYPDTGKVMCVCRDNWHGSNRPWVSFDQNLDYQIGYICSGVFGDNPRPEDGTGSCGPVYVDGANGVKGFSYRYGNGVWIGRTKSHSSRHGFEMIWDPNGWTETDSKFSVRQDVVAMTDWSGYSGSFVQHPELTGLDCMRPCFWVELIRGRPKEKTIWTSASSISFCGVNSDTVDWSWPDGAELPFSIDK
Experiment: Inhibition of Influenza A virus H1N1 neuraminidase using MU-NANA as substrate preincubated for 10 mins followed by substrate addition and measured after 15 mins by fluorescence based assay
With CC1=NN(c2cccc(C(=O)O)c2)C(=O)/C1=C\c1ccc(-c2cc(Cl)ccc2C(=O)O)o1 the IC50 was 37 µM.

Molecular target: not listed separately
Experiment: Inhibition of clostridium neuraminidase using fluorescent substrate preincubated for 2 mins followed by substrate addition and measured after 30 mins by fluorescence based microplate reader analysis
COc1cc(/C=N\NC(=O)c2ccc(Cn3cc(Br)c([N+](=O)[O-])n3)o2)cc(OC)c1O showed an IC50 of 12.9 µM.
In the case of CCOC(=O)c1ccc(N/N=C/c2cc(Br)cc([N+](=O)[O-])c2O)cc1, the IC50 is reported as 16 µM.
In the case of COc1ccc(Br)cc1C(=O)N/N=C/c1ccc(Oc2ccc([N+](=O)[O-])cc2C#N)cc1, the IC50 is reported as 7.71 µM.
For O=C(N/N=C/c1ccc(OS(=O)(=O)c2ccccc2)cc1)c1cccc([N+](=O)[O-])c1, the IC50 was 8.44 µM.
For O=C(N/N=C/c1cc([N+](=O)[O-])ccc1F)c1cc(O)c(O)c(O)c1, the IC50 was 36.6 µM.
With O=C(N/N=C/c1cc(Cl)ccc1[N+](=O)[O-])c1cc(O)c(O)c(O)c1 the IC50 was 10.6 µM.
O=C(N/N=C/c1cc([N+](=O)[O-])ccc1F)c1cc(O)cc(O)c1 gave an IC50 of 3.97 µM.
Compound CC(=O)Nc1ccc(/C=N/NC(=O)c2cc(O)cc(O)c2)cc1 has an IC50 of 13.8 µM.
COc1cc(/C=N/NC(=O)c2cc(O)cc(O)c2)ccc1O gave an IC50 of 11.6 µM.
With O=C(N/N=C/c1ccc(O)c([N+](=O)[O-])c1)c1cc(O)cc(O)c1 the IC50 was 0.21 µM.
With O=C(N/N=C/c1ccc(F)c([N+](=O)[O-])c1)c1cc(O)c(O)c(O)c1 the IC50 was 22.7 µM.
COc1cc(/C=N/NC(=O)c2cc(O)cc(O)c2)cc(OC)c1O gave an IC50 of 14.8 µM.
Work on O=C(N/N=C/c1cc(Cl)ccc1[N+](=O)[O-])c1cc(O)cc(O)c1 yielded an IC50 of 3.71 µM.
Work on O=C(N/N=C/c1cc([N+](=O)[O-])ccc1O)c1cc(O)cc(O)c1 yielded an IC50 of 1.92 µM.
O=C(N/N=C/c1ccc(F)c([N+](=O)[O-])c1)c1cc(O)cc(O)c1 showed an IC50 of 5.47 µM.
Compound O=C(N/N=C/c1ccc(O)c([N+](=O)[O-])c1)c1cc(O)c(O)c(O)c1 has an IC50 of 9.67 µM.
CCC(CC)O[C@@H]1C=C(C(=O)O)C[C@H](N)[C@H]1NC(C)=O [OSELTAMIVIR CARBOXYLATE] gave an IC50 of 3.04 µM.
